The source of these data is patent US20180251431A1 (VERTEX PHARMACEUTICALS INCORPORATED, priority 2016, published 2018).

Bounds are passed on as bounds.

The subject of this assay is HEK293 cells. Put plainly: HEK293 VLCFA-LPC IC50 determination (13C-labeled C26:0 LPC by UHPLC/MS). The class given is cell-based, human. The conditions noted are these: Homo sapiens, HEK293, HEK293 cells; average of one or more replicates; read-out: Average HEK293 IC50. The gist of the method: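 Suspension HEK293 cells (final 0.5 million/mL after mixing with equal volume) incubated 48 hours with compound plus 13C-acetate (1.0 mg/mL in added media), shaking at 37° C. Lipids extracted with hexane/isopropanol or methanol, C13:0 LPC standard. UHPLC/MS of 13C-labeled C26:0 LPC (638.500/104.100 m/z); IC50 by four-parameter fit.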
For `O=C(Cc1ccc(F)cc1)Nc1ccn(-c2cncnc2)n1` [Compound 97, 2-(4-fluorophenyl)-N-(1-pyrimidin-5-ylpyrazol-3-yl)acetamide], the half-inhibitory concentration (IC50) (usually the concentration at which inhibition is half-maximal) is more than 10000 nM.
Regarding `O=C(Nc1ccn(-c2cncnc2)n1)C1(c2ccccc2)CC1` [Compound 98, 1-phenyl-N-(1-pyrimidin-5-ylpyrazol-3-yl)cyclopropanecarboxamide], the IC50 came to 110 nM.
Under `O=C(Cc1ccccc1)Nc1ccn(-c2ccncc2)n1` [Compound 99, 2-phenyl-N-[1-(4-pyridyl)pyrazol-3-yl]acetamide] stands 760 nM; under `O=C(Nc1ccn(-c2ccncc2)n1)C1(c2ccccc2)CC1` [Compound 100, 1-phenyl-N-[1-(4-pyridyl)pyrazol-3-yl]cyclopropanecarboxamide], 33 nM; under `O=C(Nc1ccn(-c2ccncc2)n1)C1(c2ccccc2F)CC1` [Compound 101, 1-(2-fluorophenyl)-N-[1-(4-pyridyl)pyrazol-3-yl]cyclopropanecarboxamide], 75 nM.
As to `O=C(Cc1ccc(F)cc1)Nc1ccn(-c2ccncc2)n1` [Compound 102, 2-(4-fluorophenyl)-N-[1-(4-pyridyl)pyrazol-3-y]+acetamide], the IC50 is 3600 nM.
Next, `O=C(Cc1ccccc1)Nc1ccn(-c2ccc(Cl)nc2)n1` [Compound 103, N-[1-(6-chloro-3-pyridyl)pyrazol-3-yl]-2-phenyl-acetamide]: 580 nM; `O=C(Cc1ccccc1F)Nc1ccn(-c2ccc(Cl)nc2)n1` [Compound 104, N-[1-(6-chloro-3-pyridyl)pyrazol-3-yl]-2-(2-fluorophenyl)acetamide]: 320 nM.
For the molecule `O=C(Cc1ccc(F)cc1)Nc1ccn(-c2ccc(Cl)nc2)n1` [Compound 105, N-[1-(6-chloro-3-pyridyl)pyrazol-3-yl]-2-(4-fluorophenyl)acetamide], the 50% inhibitory concentration (IC50) was more than 5000 nM.
Take `O=C(Nc1ccn(-c2ccc(Cl)nc2)n1)C1(c2ccccc2)CC1` [Compound 106, N-[1-(6-chloro-3-pyridyl)pyrazol-3-yl]-1-phenyl-cyclopropanecarboxamide]: the IC50 amounted to 250 nM.
On to `O=C(Nc1ccn(-c2ccc(Cl)nc2)n1)C1(c2ccccc2F)CC1` [Compound 107, N-[1-(6-chloro-3-pyridyl)pyrazol-3-yl]-1-(2-fluorophenyl)cyclopropanecarboxamide], for which the IC50 came to 84 nM.
On to `Cc1cc(-n2ccc(NC(=O)C3(c4ccc(F)cc4)CC3)n2)ccn1` [Compound 108, 1-(4-fluorophenyl)-N-[1-(2-methyl-4-pyridyl)pyrazol-3-yl]cyclopropanecarboxamide], for which the IC50 is 770 nM.
On to `Cc1cc(-n2ccc(NC(=O)Cc3ccccc3)n2)ccn1` [Compound 109, N-[1-(2-methyl-4-pyridyl)pyrazol-3-yl]-2-phenyl-acetamide], for which the IC50 is more than 10000 nM.
As for `Cc1cc(-n2ccc(NC(=O)Cc3ccccc3F)n2)ccn1` [Compound 110, 2-(2-fluorophenyl)-N-[1-(2-methyl-4-pyridyl)pyrazol-3-yl]acetamide], the IC50 was more than 10000 nM.
Take `Cc1cc(-n2ccc(NC(=O)Cc3ccc(F)cc3)n2)ccn1` [Compound 111, 2-(4-fluorophenyl)-N-[1-(2-methyl-4-pyridyl)pyrazol-3-yl]acetamide]: the IC50 was more than 10000 nM.
For `Cc1cc(-n2ccc(NC(=O)C3(c4ccccc4)CC3)n2)ccn1` [Compound 112, N-[1-(2-methyl-4-pyridyl)pyrazol-3-yl]-1-phenyl-cyclopropanecarboxamide], the IC50 is 910 nM.
Consider `Cc1cc(-n2ccc(NC(=O)C3(c4ccccc4F)CC3)n2)ccn1` [Compound 113, 1-(2-fluorophenyl)-N-[1-(2-methyl-4-pyridyl)pyrazol-3-yl]cyclopropanecarboxamide], for which the IC50 is 1600 nM.
For the molecule `O=C(Cc1ccccc1)Nc1ccn(-c2cc(F)ncc2F)n1` [Compound 114, N-[1-(2,5-difluoro-4-pyridyl)pyrazol-3-yl]-2-phenyl-acetamide], the IC50 was determined as 1200 nM.
On to `O=C(Nc1ccn(-c2cc(F)ncc2F)n1)C1(c2ccccc2)CC1` [Compound 115, N-[1-(2,5-difluoro-4-pyridyl)pyrazol-3-yl]-1-phenyl-cyclopropanecarboxamide], for which the IC50 was found to be 120 nM.
Under `O=C(Nc1ccn(-c2cc(F)ncc2F)n1)C1(c2ccccc2F)CC1` [Compound 116, N-[1-(2,5-difluoro-4-pyridyl)pyrazol-3-yl]-1-(2-fluorophenyl)cyclopropanecarboxamide] stands 76 nM; under `Cc1ccc(-n2ccc(NC(=O)Cc3ccccc3)n2)cn1` [Compound 117, N-[1-(6-methyl-3-pyridyl)pyrazol-3-yl]-2-phenyl-acetamide], more than 5000 nM; under `Cc1ccc(-n2ccc(NC(=O)C3(c4ccccc4)CC3)n2)cn1` [Compound 118, N-(1-(6-methylpyridin-3-yl)-1H-pyrazol-3-yl)-1-phenylcyclopropane-1-carboxamide], 1300 nM.
For the molecule `Cc1ccc(-n2ccc(NC(=O)Cc3ccccc3F)n2)cn1` [Compound 119, 2-(2-fluorophenyl)-N-[1-(6-methyl-3-pyridyl)pyrazol-3-yl]acetamide], the IC50 amounted to 3500 nM.
As to `Cc1ccc(-n2ccc(NC(=O)C3(c4ccccc4F)CC3)n2)cn1` [Compound 120, 1-(2-fluorophenyl)-N-[1-(6-methyl-3-pyridyl)pyrazol-3-yl]cyclopropanecarboxamide], the IC50 is 620 nM.
Next, `O=C(Cc1ccccc1)Nc1ccn(-c2cccc(Cl)c2)n1` [Compound 121, N-[1-(3-chlorophenyl)pyrazol-3-yl]-2-phenyl-acetamide]: 650 nM; `O=C(Cc1ccccc1F)Nc1ccn(-c2ccnc(C(F)(F)F)c2)n1` [Compound 122, 2-(2-fluorophenyl)-N-[1-[2-(trifluoromethyl)-4-pyridyl]pyrazol-3-yl]acetamide]: 1600 nM.
Next, `O=C(Cc1ccccc1)Nc1ccn(-c2ccnc(C(F)(F)F)c2)n1` [Compound 123, 2-phenyl-N-[1-[2-(trifluoromethyl)-4-pyridyl]pyrazol-3-yl]acetamide]: 1500 nM; `O=C(Nc1ccn(-c2cccc(F)c2)n1)C1(c2ccccc2F)CC1` [Compound 124, 1-(2-fluorophenyl)-N-[1-(3-fluorophenyl)pyrazol-3-yl]cyclopropanecarboxamide]: 41 nM.
Regarding `O=C(Nc1ccn(-c2cccc(F)c2)n1)C1(c2ccccc2)CC1` [Compound 125, N-[1-(3-fluorophenyl)pyrazol-3-yl]-1-phenyl-cyclopropanecarboxamide], the IC50 was 71 nM.
Take `O=C(Cc1ccccc1F)Nc1ccn(-c2cccc(F)c2)n1` [Compound 126, 2-(2-fluorophenyl)-N-[1-(3-fluorophenyl)pyrazol-3-yl]acetamide]: the IC50 is 500 nM.
For the molecule `O=C(Cc1ccccc1)Nc1ccn(-c2cccc(F)c2)n1` [Compound 127, N-[1-(3-fluorophenyl)pyrazol-3-yl]-2-phenyl-acetamide], the IC50 was 810 nM.
With `O=C(Nc1ccn(-c2cccc(Cl)c2)n1)C1(c2ccccc2F)CC1` [Compound 128, N-[1-(3-chlorophenyl)pyrazol-3-yl]-1-(2-fluorophenyl)cyclopropanecarboxamide], the IC50 was determined as 230 nM.
Consider `O=C(Nc1ccn(-c2cccc(Cl)c2)n1)C1(c2ccccc2)CC1` [Compound 129, N-[1-(3-chlorophenyl)pyrazol-3-yl]-1-phenyl-cyclopropanecarboxamide], for which the IC50 is 700 nM.
As for `O=C(Cc1ccccc1F)Nc1ccn(-c2cccc(Cl)c2)n1` [Compound 130, N-[1-(3-chlorophenyl)pyrazol-3-yl]-2-(2-fluorophenyl)acetamide], the IC50 came out at 1500 nM.
For the molecule `O=C(Nc1ccn(-c2ccc(Cl)cc2)n1)C1(c2ccccc2F)CC1` [Compound 131, N-[1-(4-chlorophenyl)pyrazol-3-yl]-1-(2-fluorophenyl)cyclopropanecarboxamide], the IC50 was found to be 480 nM.
With `O=C(Nc1ccn(-c2ccc(Cl)cc2)n1)C1(c2ccccc2)CC1` [Compound 132, N-[1-(4-chlorophenyl)pyrazol-3-yl]-1-phenyl-cyclopropanecarboxamide], the IC50 is more than 5000 nM.
`O=C(Cc1ccccc1F)Nc1ccn(-c2ccc(Cl)cc2)n1` [Compound 133, N-[1-(4-chlorophenyl)pyrazol-3-yl]-2-(2-fluorophenyl)acetamide]: the IC50 was more than 5000 nM.
Under `O=C(Cc1ccccc1)Nc1ccn(-c2ccc(Cl)cc2)n1` [Compound 134, N-[1-(4-chlorophenyl)pyrazol-3-yl]-2-phenyl-acetamide] stands more than 5000 nM; under `CC1(C)CC1(C(=O)Nc1ccn(-c2ccccc2)n1)c1ccccc1F` (centres unmarked) [Compound 135, 1-(2-fluorophenyl)-2,2-dimethyl-N-(1-phenylpyrazol-3-yl)cyclopropanecarboxamide], 680 nM.
In the case of `CC1(C)CC1(C(=O)Nc1ccn(-c2ccccc2)n1)c1ccccc1` (centres unmarked) [Compound 136, 2,2-dimethyl-1-phenyl-N-(1-phenylpyrazol-3-yl)cyclopropanecarboxamide], the IC50 worked out at 940 nM.
For the molecule `O=C(Nc1ccn(-c2ccncc2F)n1)C1(c2ccccc2F)CC1` [Compound 137, 1-(2-fluorophenyl)-N-[1-(3-fluoro-4-pyridyl)pyrazol-3-yl]cyclopropanecarboxamide], the IC50 is 120 nM.
Under `O=C(Nc1ccn(-c2ccncc2F)n1)C1(c2ccccc2)CC1` [Compound 138, N-(1-(3-fluoropyridin-4-yl)-1H-pyrazol-3-yl)-1-phenylcyclopropane-1-carboxamide] stands 55 nM; under `O=C(Cc1ccccc1F)Nc1ccn(-c2ccncc2F)n1` [Compound 139, 2-(2-fluorophenyl)-N-[1-(3-fluoro-4-pyridyl)pyrazol-3-yl]acetamide], 400 nM; under `O=C(Cc1ccccc1)Nc1ccn(-c2ccncc2F)n1` [Compound 140, N-[1-(3-fluoro-4-pyridyl)pyrazol-3-yl]-2-phenyl-acetamide], 1100 nM.
